Measurements: US8853258B2, “C-linked hydroxamic acid derivatives useful as antibacterial agents” (Pfizer Inc., priority 2009, dated 2014)
pIC50: −log10 of the molar value. Converted amounts (≈) assume the structure as drawn. Read-outs that look alike come from different tables or passages of the source.

Tests used:
[1] = tested on: Acinetobacter baumanii/haemolyticus: Multidrug-resistant clinical isolate (AB-3167); experiment: MIC determination (CLSI), AB-3167; format: cell-based; details: for MIC: Acinetobacter baumannii, Table 3, read-out: AB-3167 MIC
Method in brief: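 Multidrug-resistant clinical isolate AB-3167 (A. baumannii/haemolyticus) tested for minimum inhibitory concentration following CLSI dilution susceptibility standards M7-A7 and M100-S18.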

[2] = tested on: Klebsiella pneumoniae: Ciprofloxacin-resistant isolate, ESBL, clinical isolate (KP-3700); experiment: MIC determination (CLSI), KP-3700; format: cell-based
Method in brief: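 MIC measured by broth dilution according to CLSI M7-A7 and M100-S18 standards. Test organism was a ciprofloxacin-resistant, ESBL-expressing clinical isolate.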

[3] = tested on: Escherichia coli EC-1: VOGEL, mouse virulent; experiment: MIC determination (CLSI), EC-1; format: cell-based; details: for MIC: Escherichia coli, read-out: EC-1 MIC
Method in brief: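 E. coli Vogel, a mouse-virulent strain (EC-1), was tested. MICs were set by dilution susceptibility testing per CLSI standards M7-A7/M100-S18.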

[4] = tested on: Pseudomonas aeruginosa UI-18: Wild-type (PA-7); experiment: MIC determination (CLSI), PA-7; format: cell-based; details: for MIC: Pseudomonas aeruginosa, Table 3, read-out: PA-7 MIC
Method in brief: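 MIC by dilution method per CLSI M7-A7 and M100-S18 guidelines. Strain: wild-type Pseudomonas aeruginosa UI-18.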

[5] = biological target: Pseudomonas aeruginosa LpxC enzyme (Pseudomonas aeruginosa (strain ATCC 15692 / DSM 22644 / CIP 104116 / JCM 14847 / LMG 12228 / 1C / PRS 101 / PAO1), UniProt P47205); experiment: IC50 Assay, LpxC Enzyme from P. aeruginosa (PA LpxC Enzyme IC50); format: biochemical
Method in brief: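 Reaction run 1 h then stopped with 1N HCl. Conversion measured by RapidFire high-throughput mass spectrometry. IC50 derived from percent conversion relative to a no-enzyme control.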

[6] = Acinetobacter baumanii/haemolyticus AB-3167
[7] = Pseudomonas aeruginosa UI-18 (PA-7)
[8] = P. aeruginosa LpxC enzyme, read-out: PA LpxC enzyeme IC50
[9] = Acinetobacter baumanii/haemolyticus multidrug-resistant clinical isolate AB-3167
[10] = Escherichia coli EC-1 VOGEL, mouse virulent
[11] = Pseudomonas aeruginosa UI-18 wild-type PA-7
[12] = Table 3, read-out: PA LpxC enzyeme IC^50

CC(CCc1ccc(COc2ccc(F)cc2)cc1)(C(=O)NO)S(C)(=O)=O (centres unmarked) [Example 228]
AB-3167 MIC [1, 6]: 16 µg/mL | KP-3700 MIC [2]: 16 µg/mL | EC-1 MIC ([3]; Escherichia coli EC-1): 8 µg/mL | PA-7 MIC [4, 7]: 8 µg/mL | pIC50 [5, 8]: 8.48

CC(CCc1ccc(-c2ccc3c(c2)C(=O)NC3)c(F)c1)(C(=O)NO)S(C)(=O)=O (centres unmarked) [Example 203]
AB-3167 MIC [1, 6]: ≧64 mg/L | KP-3700 MIC [2]: 32 µg/mL | EC-1 MIC ([3]; Escherichia coli EC-1): 8 µg/mL | PA-7 MIC [4, 7]: 4 µg/mL | pIC50 [5, 8]: 9.18

CC(CCc1ccc(-c2ccc(N3CCN(S(C)(=O)=O)CC3)cc2)cc1)(C(=O)NO)S(C)(=O)=O (centres unmarked) [Example 193]
AB-3167 MIC [1, 9]: ≧64 mg/L | KP-3700 MIC [2]: ≧64 mg/L | EC-1 MIC [3, 10]: 16 µg/mL | PA-7 MIC [4, 11]: ≧64 mg/L | pIC50 [5, 8]: 8.97

CC(CCc1ccc(-c2ccc(O)cc2)cc1F)(C(=O)NO)S(C)(=O)=O (centres unmarked) [Example 178]
AB-3167 MIC [1, 9]: 8 µg/mL | KP-3700 MIC [2]: 4 µg/mL | EC-1 MIC [3, 10]: 1 µg/mL | PA-7 MIC [4, 11]: 1 µg/mL | pIC50 [5, 8]: 10.23

CC(CCc1ccc(-c2cccnc2)c(F)c1)(C(=O)NO)S(C)(=O)=O (centres unmarked) [Example 197]
AB-3167 MIC [1, 9]: ≧64 mg/L | KP-3700 MIC [2]: ≧64 mg/L | EC-1 MIC [3, 10]: ≧64 mg/L | PA-7 MIC [4, 11]: 8 µg/mL | pIC50 [5, 8]: 8.15

Cc1cc(-c2ccc(F)cc2)ccc1CCC(C)(C(=O)NO)S(C)(=O)=O (centres unmarked) [Example 157]
AB-3167 MIC [1, 9]: 8 µg/mL | KP-3700 MIC [2]: 4 µg/mL | EC-1 MIC [3, 10]: 1 µg/mL | PA-7 MIC [4, 11]: 4 µg/mL | pIC50 [5, 8]: 9.47

CC(=O)c1ccc(-c2ccc(CC[C@](C)(C(=O)NO)S(C)(=O)=O)cc2)nc1 [Example 189]
AB-3167 MIC [1, 9]: ≧64 mg/L | KP-3700 MIC [2]: 16 µg/mL | EC-1 MIC [3, 10]: 16 µg/mL | PA-7 MIC [4, 11]: 4 µg/mL | pIC50 [5, 8]: 9.15

C[C@@](CCc1ccc(-c2ccc(OCCCN3CCCCC3)cc2)cc1)(C(=O)NO)S(C)(=O)=O [Example 220]
AB-3167 MIC [1, 6]: ≧64 mg/L | KP-3700 MIC [2]: 32 µg/mL | EC-1 MIC ([3]; Escherichia coli EC-1): 8 µg/mL | PA-7 MIC [4, 7]: 16 µg/mL | pIC50 [5, 8]: 9.33

CC(CCc1ccc(OCc2ccccc2C#N)cc1)(C(=O)NO)S(C)(=O)=O (centres unmarked) [Example 285, 4-{4-[(2-cyanobenzyl)oxy]phenyl}-N-hydroxy-2-methyl-2-(methylsulfonyl)butanamide]
MIC [1]: ≥ 64 µg/mL | KP-3700 MIC [2]: ≧64 mg/L | MIC [3]: 32 µg/mL (≈ 79.5 µM) | MIC [4]: 32 µg/mL (≈ 79.5 µM) | pIC50 [5, 12]: 8.00

CC(CCc1ccc(-c2cccc(Cl)c2Cl)cc1)(C(=O)NO)S(C)(=O)=O (centres unmarked) [Example 59]
AB-3167 MIC [1, 9]: 2 µg/mL | KP-3700 MIC [2]: 2 µg/mL | EC-1 MIC [3, 10]: 0.5 µg/mL | PA-7 MIC [4, 11]: 2 µg/mL | pIC50 [5, 8]: 9.67

CC(CCc1ccc(OCc2ccccc2)cc1)(C(=O)NO)S(C)(=O)=O (centres unmarked) [Example 132]
AB-3167 MIC [1, 9]: 16 µg/mL | KP-3700 MIC [2]: 16 µg/mL | EC-1 MIC [3, 10]: 2 µg/mL | PA-7 MIC [4, 11]: 2 µg/mL | pIC50 [5, 8]: 9.41

CC(CCc1ccc(-c2ccc(O)c(F)c2)cc1)(C(=O)NO)S(C)(=O)=O (centres unmarked) [Example 138]
AB-3167 MIC [1, 9]: 32 µg/mL | KP-3700 MIC [2]: 8 µg/mL | EC-1 MIC [3, 10]: 2 µg/mL | PA-7 MIC [4, 11]: 1 µg/mL | pIC50 [5, 8]: 9.47

CC(CCc1ccc(-c2ccc(O)cc2)c(F)c1)(C(=O)NO)S(C)(=O)=O (centres unmarked) [Example 177]
AB-3167 MIC [1, 9]: 32 µg/mL | KP-3700 MIC [2]: 8 µg/mL | EC-1 MIC [3, 10]: 1 µg/mL | PA-7 MIC [4, 11]: 2 µg/mL | pIC50 [5, 8]: 9.51

CC(=O)Nc1ccc(-c2ccc(CC[C@](C)(C(=O)NO)S(C)(=O)=O)cc2)cc1 [Example 205]
AB-3167 MIC [1, 6]: ≧64 mg/L | KP-3700 MIC [2]: 32 µg/mL | EC-1 MIC ([3]; Escherichia coli EC-1): 16 µg/mL | PA-7 MIC [4, 7]: 4 µg/mL | pIC50 [5, 8]: 8.76

Cc1ccc(OCc2noc(COc3ccc(CCC(C)(C(=O)NO)S(C)(=O)=O)cc3)n2)cc1 (centres unmarked) [Example 286, N-hydroxy-2-methyl-4-[4-({3-[(4-methylphenoxy)methyl]-1,2,4-oxadiazol-5-yl}methoxy)phenyl]-2-(methylsulfonyl)butanamide]
MIC [1]: ≥ 64 µg/mL | KP-3700 MIC [2]: ≧64 mg/L | MIC [3]: 32 µg/mL (≈ 65.4 µM) | MIC [4]: ≥ 64 µg/mL | pIC50 [5, 12]: 7.92

C[C@@](CCc1ccc(-c2ccc(NS(C)(=O)=O)cc2)cc1)(C(=O)NO)S(C)(=O)=O [Example 210]
AB-3167 MIC [1, 6]: ≧64 mg/L | KP-3700 MIC [2]: 16 µg/mL | EC-1 MIC ([3]; Escherichia coli EC-1): 4 µg/mL | PA-7 MIC [4, 7]: 2 µg/mL | pIC50 [5, 8]: 9.15

CC(CCc1ccc(-c2ccc(N)nc2)c(F)c1)(C(=O)NO)S(C)(=O)=O (centres unmarked) [Example 206]
AB-3167 MIC [1, 6]: ≧64 mg/L | KP-3700 MIC [2]: ≧64 mg/L | EC-1 MIC ([3]; Escherichia coli EC-1): ≧64 mg/L | PA-7 MIC [4, 7]: 16 µg/mL | pIC50 [5, 8]: 7.63

CC(CCc1ccc(-c2ccc(CO)c(F)c2)cc1)(C(=O)NO)S(C)(=O)=O (centres unmarked) [Example 123]
AB-3167 MIC [1, 9]: ≧64 mg/L | KP-3700 MIC [2]: 16 µg/mL | EC-1 MIC [3, 10]: 16 µg/mL | PA-7 MIC [4, 11]: 1 µg/mL | pIC50 [5, 8]: 9.31

CC(C)(O)CCc1ccc(-c2ccc(CCC(C)(C(=O)NO)S(C)(=O)=O)cc2)cc1 (centres unmarked) [Example 158]
AB-3167 MIC [1, 9]: 32 µg/mL | KP-3700 MIC [2]: 8 µg/mL | EC-1 MIC [3, 10]: 0.5 µg/mL | PA-7 MIC [4, 11]: 4 µg/mL | pIC50 [5, 8]: 9.19

CC(C)CCc1noc(COc2ccc(CCC(C)(C(=O)NO)S(C)(=O)=O)cc2)n1 (centres unmarked) [Example 272, N-hydroxy-2-methyl-4-(4-{[3-(3-methylbutyl)-1,2,4-oxadiazol-5-yl]methoxy}phenyl)-2-(methylsulfonyl)butanamide]
MIC [1]: ≥ 64 µg/mL | KP-3700 MIC [2]: ≧64 mg/L | MIC [3]: 32 µg/mL (≈ 72.8 µM) | MIC [4]: ≥ 64 µg/mL | pIC50 [5, 12]: 8.81

CC(C)c1ccc(-c2noc(COc3ccc(CCC(C)(C(=O)NO)S(C)(=O)=O)cc3)n2)cc1 (centres unmarked) [Example 299, N-hydroxy-4-(4-{[3-(4-isopropylphenyl)-1,2,4-oxadiazol-5-yl]methoxy}phenyl)-2-methyl-2-(methylsulfonyl)butanamide]
MIC [1]: ≥ 64 µg/mL | KP-3700 MIC [2]: ≧64 mg/L | MIC [3]: 16 µg/mL (≈ 32.8 µM) | MIC [4]: ≥ 64 µg/mL | pIC50 [5, 12]: 8.41

Cc1cc(C#N)ccc1-c1ccc(CCC(C)(C(=O)NO)S(C)(=O)=O)cc1 (centres unmarked) [Example 91]
AB-3167 MIC [1, 9]: 16 µg/mL | KP-3700 MIC [2]: 8 µg/mL | EC-1 MIC [3, 10]: 2 µg/mL | PA-7 MIC [4, 11]: 2 µg/mL | pIC50 [5, 8]: 9.58

CC(CCc1ccc(OCc2ccc(OC(F)(F)F)cc2)cc1)(C(=O)NO)S(C)(=O)=O (centres unmarked) [Example 288, N-hydroxy-2-methyl-2-(methylsulfonyl)-4-(4-{[4-(trifluoromethoxy)benzyl]oxy}phenyl)butanamide]
MIC [1]: 4 µg/mL (≈ 8.67 µM) | KP-3700 MIC [2]: 8 µg/mL | MIC [3]: 4 µg/mL (≈ 8.67 µM) | MIC [4]: 8 µg/mL (≈ 17.3 µM) | pIC50 [5, 12]: 8.82

CC(CCc1ccc(OCc2ccc(Cl)cc2F)cc1)(C(=O)NO)S(C)(=O)=O (centres unmarked) [Example 307, 4-{4-[(4-chloro-2-fluorobenzyl)oxy]phenyl}-N-hydroxy-2-methyl-2-(methylsulfonyl)butanamide]
MIC [1]: 16 µg/mL (≈ 37.2 µM) | KP-3700 MIC [2]: 8 µg/mL | MIC [3]: 2 µg/mL (≈ 4.65 µM) | MIC [4]: 4 µg/mL (≈ 9.3 µM) | pIC50 [5, 12]: 9.41

CC(=O)c1ccc(-c2ccc(CCC(C)(C(=O)NO)S(C)(=O)=O)c(F)c2)cn1 (centres unmarked) [Example 188]
AB-3167 MIC [1, 9]: ≧64 mg/L | KP-3700 MIC [2]: 8 µg/mL | EC-1 MIC [3, 10]: 8 µg/mL | PA-7 MIC [4, 11]: 2 µg/mL | pIC50 [5, 8]: 9.46
